Like-named read-outs stand apart in the source and are kept apart here.
Experiments:
Jurkat cell SOCE [1] = assay: Thapsigargin-induced SOCE in Jurkat cells, Indo-1 [Ca2+]cyt measurement; type: cell-based, human; conditions: for Ki: 1 µM thapsigargin 10 min, compound added 30 s prior to 1 mM CaCl2
Description: To visualize SOCE, we performed a classical protocol: Jurkat cells in Ca^2+-free HBS medium are stimulated by 1 µM thapsigargin (TG, black arrow, Figure 2A) during 600 s to allow the release of Ca^2+ ions by the ER, and the subsequent opening of the store-operated Ca^2+ channels (SOCC). Addition of 1 mM CaCl2 allowed for a massive entry of Ca^2+ ions through SOCC leading thus to an increase of the cytosolic calcium concentration ([Ca^2+]cyt). To test 2-APB and its analogues, different concentrations of compounds were added 30 s prior to Ca^2+ addition.
[Ca^2+]cyt was recorded by a fluorimetric ratio technique as previously described. Leukocytes were spun and resuspended at a density of 10^6 cells/mL in Hepes buffered saline (HBS; 135 mM NaCl, 5.9 mM KCl, 1.2 mM MgCl2, 11.6 mM Hepes, 11.5 mM glucose adjusted to pH 7.3 with NaOH). Due to the presence of 0.002% Ca^2+ in the NaCl, this HBS medium contained 0.1 mM of Ca^2+. Then, cells were incubated in the dark with 4 μM Indo-1-AM for one hour at room temperature under slow agitation. Cells were then centrifuged and resuspended in HBS medium before measurement. To perform the experiments, 0.5 to 1 × 10^6 cells were suspended in 2 mL HBS in a quartz cuvette and inserted into a spectrofluorophotometer (RF-1501 Shimadzu Corporation, Kyoto, Japan) connected to a PC computer (Dell Computer Corp., Montpellier, France). A temperature of 37°C was maintained by circulating water from a bath. Ultraviolet light of 360 nm was used for excitation of Indo-1, and emissions at 405 and 480 nm were recorded. Background and autofluorescence of the cell suspension were subtracted from the recordings. The maximum Indo-1 fluorescence (Rmax) was obtained by adding 1 µM ionomycin to the cell suspension in the presence of 10 mM extracellular CaCl2. Minimum fluorescence was determined following the depletion of external Ca^2+ with 5 mM EGTA.
To visualize the SOCE, cells were placed into the quartz cuvette and 0.5 EGTA was added just before the beginning of the recordings. To induce the SOCE, the cells were treated with 1 μM thapsigargin (TG) during 10 min in Ca^2+-free HBS to induce Ca^2+ release from the ER and the opening of SOCE channels. Then, 1 mM CaCl2 was added to measure the change in [Ca^2+]cyt subsequently to Ca^2+ influx. In the dose-response experiments, different concentrations of 2-APB and its analogs were added 30 s prior to Ca^2+ readdition.

[2] = system: ER Ca2+ stores of L15 fibroblasts; assay: Basal Ca2+ leak from ER stores, unidirectional 45Ca2+ flux in permeabilized L15 fibroblasts; type: cell-based
Description: (§1) Measurements of SERCA-mediated ^45Ca^2+ store loading and IP3-dependent release from the ER Ca^2+ store were performed on permeabilized cells in unidirectional conditions. As this approach required the use of cells forming strongly adherent monolayers, we used L15 fibroblasts stably overexpressing IP3R1, similarly to our previous work.
The L15 fibroblasts stably overexpressing IP3R1 were seeded in gelatin-coated 12-well plates (Greiner, Frickenhausen, Germany) at a density of 60,000 cells per well. Unidirectional ^45Ca^2+ flux experiments on confluent cell monolayers were performed at 30 °C after membrane permeabilization with saponin (40 µg/mL), exactly as previously described. After permeabilization, the non-mitochondrial Ca^2+ stores were loaded for 45 min in 120 mM KCl, 30 mM imidazole–HCl (pH 6.8), 5 mM MgCl2, 5 mM ATP, 0.44 mM EGTA, 10 mM NaN3, and 150 nM free ^45Ca^2+ (28 µCi mL^−1). Subsequently, efflux was initiated by incubation in efflux medium (120 mM KCl, 1 mM EGTA, 10 µM TG and 30 mM imidazole–HCl pH 6.8). […] The exact amount of Ca^2+ at each time point is calculated by summing in retrograde order the amount of radioactivity remaining in the cells at the end of the efflux and the radioactivity collected during the successive time intervals. […] These various parameters were measured both in control conditions or in the presence of various 2-APB analogs as indicated. […]

IP3R1 = molecular target: T1, IP3R1 (Mus musculus, UniProt P11881); assay: IP3-induced Ca2+ release (IICR) in permeabilized L15 fibroblasts overexpressing IP3R1; type: cell-based; conditions: permeabilized L15 fibroblasts
T1 construct: expressed in transfected cells; host or cells: L15 fibroblast cell line (gift of Katsuhiko Mikoshiba), saponin-permeabilized
T1 sequence (P11881 whole entry): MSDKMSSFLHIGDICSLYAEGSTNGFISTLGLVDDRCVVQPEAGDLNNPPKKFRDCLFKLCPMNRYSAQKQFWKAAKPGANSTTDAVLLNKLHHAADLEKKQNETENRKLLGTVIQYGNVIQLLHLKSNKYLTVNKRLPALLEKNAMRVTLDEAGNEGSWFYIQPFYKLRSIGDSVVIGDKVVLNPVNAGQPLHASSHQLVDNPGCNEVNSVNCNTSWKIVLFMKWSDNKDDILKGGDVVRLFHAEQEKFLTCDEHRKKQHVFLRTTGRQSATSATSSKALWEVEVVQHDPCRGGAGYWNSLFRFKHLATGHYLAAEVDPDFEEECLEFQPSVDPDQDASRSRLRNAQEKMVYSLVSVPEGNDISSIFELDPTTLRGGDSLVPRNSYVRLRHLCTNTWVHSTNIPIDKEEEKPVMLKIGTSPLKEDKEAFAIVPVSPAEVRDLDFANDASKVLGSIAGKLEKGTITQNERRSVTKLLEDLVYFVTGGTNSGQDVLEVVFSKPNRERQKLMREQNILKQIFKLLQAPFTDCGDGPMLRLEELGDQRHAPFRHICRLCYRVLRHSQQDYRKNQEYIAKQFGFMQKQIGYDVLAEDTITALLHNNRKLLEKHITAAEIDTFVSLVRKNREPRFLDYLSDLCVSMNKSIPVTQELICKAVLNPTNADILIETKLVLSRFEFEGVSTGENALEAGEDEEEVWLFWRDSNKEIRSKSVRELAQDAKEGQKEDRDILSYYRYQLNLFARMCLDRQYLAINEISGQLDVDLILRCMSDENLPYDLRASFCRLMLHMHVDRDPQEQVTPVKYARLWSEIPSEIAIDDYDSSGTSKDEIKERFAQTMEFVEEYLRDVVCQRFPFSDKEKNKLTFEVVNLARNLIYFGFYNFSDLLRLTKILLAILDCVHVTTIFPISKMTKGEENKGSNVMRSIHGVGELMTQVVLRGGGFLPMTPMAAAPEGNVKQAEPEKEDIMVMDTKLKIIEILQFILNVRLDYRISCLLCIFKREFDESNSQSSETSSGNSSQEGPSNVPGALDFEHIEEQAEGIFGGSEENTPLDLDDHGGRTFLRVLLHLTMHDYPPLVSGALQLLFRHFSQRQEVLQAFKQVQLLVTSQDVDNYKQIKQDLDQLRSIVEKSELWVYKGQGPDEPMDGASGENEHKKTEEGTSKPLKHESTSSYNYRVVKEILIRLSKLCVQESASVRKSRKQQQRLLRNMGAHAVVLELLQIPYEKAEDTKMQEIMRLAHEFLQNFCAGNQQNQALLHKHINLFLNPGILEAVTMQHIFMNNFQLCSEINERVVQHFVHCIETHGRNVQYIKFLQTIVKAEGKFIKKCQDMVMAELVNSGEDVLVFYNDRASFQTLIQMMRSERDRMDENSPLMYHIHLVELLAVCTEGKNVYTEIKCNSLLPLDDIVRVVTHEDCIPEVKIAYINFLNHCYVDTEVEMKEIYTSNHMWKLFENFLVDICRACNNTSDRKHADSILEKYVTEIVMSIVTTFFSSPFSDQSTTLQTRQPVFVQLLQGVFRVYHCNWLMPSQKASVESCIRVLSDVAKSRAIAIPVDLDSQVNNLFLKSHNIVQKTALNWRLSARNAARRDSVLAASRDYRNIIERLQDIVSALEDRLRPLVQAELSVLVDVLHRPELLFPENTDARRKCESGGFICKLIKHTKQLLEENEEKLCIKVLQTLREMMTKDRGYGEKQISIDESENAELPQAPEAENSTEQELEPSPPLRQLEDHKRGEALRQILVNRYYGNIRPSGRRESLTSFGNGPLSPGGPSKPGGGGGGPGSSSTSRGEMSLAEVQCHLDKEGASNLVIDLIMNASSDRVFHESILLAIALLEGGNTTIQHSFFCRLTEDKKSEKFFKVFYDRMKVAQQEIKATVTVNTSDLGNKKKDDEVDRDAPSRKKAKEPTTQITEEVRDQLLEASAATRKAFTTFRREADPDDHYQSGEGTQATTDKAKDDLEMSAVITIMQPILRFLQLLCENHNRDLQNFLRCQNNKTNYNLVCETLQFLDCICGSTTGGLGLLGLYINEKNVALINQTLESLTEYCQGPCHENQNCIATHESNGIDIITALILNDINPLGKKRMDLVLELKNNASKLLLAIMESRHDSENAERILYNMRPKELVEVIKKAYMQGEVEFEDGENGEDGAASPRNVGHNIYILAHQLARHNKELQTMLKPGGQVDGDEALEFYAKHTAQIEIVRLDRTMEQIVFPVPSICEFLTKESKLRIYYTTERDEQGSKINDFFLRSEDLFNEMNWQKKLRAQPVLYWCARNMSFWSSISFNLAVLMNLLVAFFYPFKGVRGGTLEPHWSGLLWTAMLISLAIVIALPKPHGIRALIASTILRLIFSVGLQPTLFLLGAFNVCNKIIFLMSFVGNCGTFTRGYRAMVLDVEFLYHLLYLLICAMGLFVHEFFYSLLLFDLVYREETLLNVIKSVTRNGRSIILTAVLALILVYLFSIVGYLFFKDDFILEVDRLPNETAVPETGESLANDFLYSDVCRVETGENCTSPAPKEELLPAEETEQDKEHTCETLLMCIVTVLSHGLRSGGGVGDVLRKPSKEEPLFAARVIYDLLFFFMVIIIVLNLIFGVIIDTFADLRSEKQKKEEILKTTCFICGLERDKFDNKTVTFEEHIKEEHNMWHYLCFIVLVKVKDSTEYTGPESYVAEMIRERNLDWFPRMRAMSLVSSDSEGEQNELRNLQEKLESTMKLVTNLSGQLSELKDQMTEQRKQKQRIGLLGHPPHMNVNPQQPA
Description: as §1
The L15 fibroblasts stably overexpressing IP3R1 were seeded in gelatin-coated 12-well plates (Greiner, Frickenhausen, Germany) at a density of 60,000 cells per well. Unidirectional ^45Ca^2+ flux experiments on confluent cell monolayers were performed at 30 °C after membrane permeabilization with saponin (40 µg/mL), exactly as previously described. After permeabilization, the non-mitochondrial Ca^2+ stores were loaded for 45 min in 120 mM KCl, 30 mM imidazole–HCl (pH 6.8), 5 mM MgCl2, 5 mM ATP, 0.44 mM EGTA, 10 mM NaN3, and 150 nM free ^45Ca^2+ (28 µCi mL^−1). Subsequently, efflux was initiated by incubation in efflux medium (120 mM KCl, 1 mM EGTA, 10 µM TG and 30 mM imidazole–HCl pH 6.8). The latter medium was replaced every two minutes for 18 minutes. The exact amount of Ca^2+ at each time point is calculated by summing in retrograde order the amount of radioactivity remaining in the cells at the end of the efflux and the radioactivity collected during the successive time intervals. This allows to calculate the steady-state content of the ER Ca^2+ stores (indicative for the SERCA activity, after subtraction of the loading achieved in the presence of 2 µM TG) the basal leak rate of Ca^2+ out of the stores and the IP3-induced Ca^2+ release after addition of IP3 (0.7 µM). These various parameters were measured both in control conditions or in the presence of various 2-APB analogs as indicated. To assess the effect of the 2-APB analogs on the SERCA-mediated loading of the ER Ca^2+ stores, the analogs were added during the ^45Ca^2+-loading phase as described previously. […]

SERCA = SERCA (Mus musculus, UniProt O55143); assay: SERCA-mediated 45Ca2+ store loading in permeabilized L15 fibroblasts; type: cell-based; conditions: 100 µM; read-out: change of SERCA activity
Sequence of SERCA (O55143 whole entry): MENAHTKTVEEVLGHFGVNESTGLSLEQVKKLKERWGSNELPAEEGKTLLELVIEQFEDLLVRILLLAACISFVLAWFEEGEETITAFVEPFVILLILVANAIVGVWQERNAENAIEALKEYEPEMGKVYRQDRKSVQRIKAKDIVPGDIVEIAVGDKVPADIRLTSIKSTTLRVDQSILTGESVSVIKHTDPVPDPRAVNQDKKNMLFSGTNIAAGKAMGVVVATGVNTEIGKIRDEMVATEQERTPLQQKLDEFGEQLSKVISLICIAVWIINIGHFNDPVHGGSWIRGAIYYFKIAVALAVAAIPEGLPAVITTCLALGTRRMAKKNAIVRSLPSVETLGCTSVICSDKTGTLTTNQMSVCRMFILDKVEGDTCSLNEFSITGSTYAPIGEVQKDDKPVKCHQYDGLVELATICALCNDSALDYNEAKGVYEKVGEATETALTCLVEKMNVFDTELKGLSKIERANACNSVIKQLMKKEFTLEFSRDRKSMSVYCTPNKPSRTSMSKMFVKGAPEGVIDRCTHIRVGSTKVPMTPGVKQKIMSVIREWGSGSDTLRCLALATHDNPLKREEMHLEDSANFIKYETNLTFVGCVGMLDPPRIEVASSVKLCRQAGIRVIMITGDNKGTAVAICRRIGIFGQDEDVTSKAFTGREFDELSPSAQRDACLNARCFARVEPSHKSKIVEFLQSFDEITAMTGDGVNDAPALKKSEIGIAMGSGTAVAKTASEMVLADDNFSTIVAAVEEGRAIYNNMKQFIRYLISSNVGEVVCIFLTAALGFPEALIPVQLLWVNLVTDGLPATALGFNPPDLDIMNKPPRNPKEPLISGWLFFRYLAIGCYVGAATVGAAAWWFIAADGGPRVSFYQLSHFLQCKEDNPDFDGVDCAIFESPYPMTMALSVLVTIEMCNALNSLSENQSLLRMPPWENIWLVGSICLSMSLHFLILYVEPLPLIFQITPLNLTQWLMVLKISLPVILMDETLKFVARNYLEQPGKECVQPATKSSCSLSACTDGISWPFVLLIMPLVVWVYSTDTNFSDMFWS
Description: as §1
The L15 fibroblasts stably overexpressing IP3R1 were seeded in gelatin-coated 12-well plates (Greiner, Frickenhausen, Germany) at a density of 60,000 cells per well. Unidirectional ^45Ca^2+ flux experiments on confluent cell monolayers were performed at 30 °C after membrane permeabilization with saponin (40 µg/mL), exactly as previously described. After permeabilization, the non-mitochondrial Ca^2+ stores were loaded for 45 min in 120 mM KCl, 30 mM imidazole–HCl (pH 6.8), 5 mM MgCl2, 5 mM ATP, 0.44 mM EGTA, 10 mM NaN3, and 150 nM free ^45Ca^2+ (28 µCi mL^−1). Subsequently, efflux was initiated by incubation in efflux medium (120 mM KCl, 1 mM EGTA, 10 µM TG and 30 mM imidazole–HCl pH 6.8). The latter medium was replaced every two minutes for 18 minutes. The exact amount of Ca^2+ at each time point is calculated by summing in retrograde order the amount of radioactivity remaining in the cells at the end of the efflux and the radioactivity collected during the successive time intervals. This allows to calculate the steady-state content of the ER Ca^2+ stores (indicative for the SERCA activity, after subtraction of the loading achieved in the presence of 2 µM TG) the basal leak rate of Ca^2+ out of the stores and the IP3-induced Ca^2+ release after addition of IP3 (0.7 µM). These various parameters were measured both in control conditions or in the presence of various 2-APB analogs as indicated. To assess the effect of the 2-APB analogs on the SERCA-mediated loading of the ER Ca^2+ stores, the analogs were added during the ^45Ca^2+-loading phase as described previously. Obviously, compounds that strongly stimulated the basal Ca^2+ leak out of the stores (as P8) could not be investigated for their effect on SERCA activity (as Ca^2+ loading was already compromised by the increased leak) or on IP3-induced Ca^2+ release (as the decreased luminal Ca^2+ level impacted both the driving force for Ca^2+ release and the sensitivity of the IP3R).

Jurkat cell SOCE [3] = conditions: leukocyte SOCE; cited from earlier work
[4] = Jurkat cells, read-out: Ki (µM), inhibition constant on SOCE
[5] = Jurkat cells, read-out: Ki (nM), inhibition constant on SOCE

Compound	Ki (Jurkat cell SOCE [1]; [4]) [µM]	Ki (Jurkat cell SOCE [1]; [5]) [µM]	further results
2-(((4-methoxyphenyl)(p-tolyl)boryl)oxy)ethanamine [P16]	3.1 ± 0.6		
2-((bis(3,4-dimethylphenyl)boryl)oxy)ethanamine [P7]		0.751 ± 0.097	
2-((bis(3,5-dimethylphenyl)boryl)oxy)ethanamine [P10]	~0.5	0.484 ± 0.116	concentration of complete/full SOCE inhibition (Jurkat cell SOCE [1]; Jurkat cells): 3 µM
2-((bis(3-methoxyphenyl)boryl)oxy)ethanamine [P4]	75 ± 21		maximal inhibition of SOCE (Jurkat cell SOCE [1]; Jurkat cells): ≈ 80%
2-((bis(4-(tert-butyl)phenyl)boryl)oxy)ethanamine [P8]		0.35 ± 0.04	Ca2+ leak from the ER by an IP3-independent pathway [2]: strong Ca^2+ leak
2-((bis(4-methoxyphenyl)boryl)oxy)ethanamine [P2]	3.5 ± 0.65		
2-((di(naphthalen-2-yl)boryl)oxy)ethanamine [P6]		0.275 ± 0.017	
2-((di-m-tolylboryl)oxy)ethanamine [P5]	2.1 ± 0.6		
2-((di-p-tolylboryl)oxy)ethanamine [P3]	3.5 ± 0.6		
CCCCc1ccc([B-]2(c3ccc(CCCC)cc3)[NH2+]CCO2)cc1 [P9]		0.641 ± 0.103	inhibition of IP3R activity (IP3R1): did not significantly inhibit; inhibition at 100 µM (SERCA): 52 ± 3%
NCCOB(c1ccc2sccc2c1)c1ccc2sccc2c1 [P12, 2-(dibenzo[b]thiophen-5-ylboryloxy)ethanamine]		0.374 ± 0.096	
Clc1ccc([B-]2(c3ccc(Cl)cc3)[NH2+]CCO2)cc1 [P13]	1.8 ± 0.1		
Fc1ccc([B-]2(c3ccc(F)cc3)[NH2+]CCO2)cc1 [P14]	5.4 ± 0.3		
Cc1ccc([B-]2(c3ccc(C)c(Cl)c3)[NH2+]CCO2)cc1Cl [P15]	~0.3	0.294 ± 0.074	
CC1(C)c2ccccc2-c2ccc([B-]3(c4ccc5c(c4)C(C)(C)c4ccccc4-5)[NH2+]CCO3)cc21 [P17]	> 100		effect on SOCE amplitude (Jurkat cell SOCE [1]; concentrations >3 µM, higher concentrations disrupted the fluorescence): no effect
((diphenylboryl)oxy)ethanamine [2-APB, reference compound]			SOCE potentiation, % of control [Ca2+]cyt increase (Jurkat cell SOCE [1]; 5 µM, Jurkat cells): > 200%; SOCE inhibition (Jurkat cell SOCE [1]; 50 µM, Jurkat cells): almost total inhibition; concentration of full SOCE block (Jurkat cell SOCE [3]): 20 to 30 µM

— article PMC7767506, “Synthesis and Characterization of Store-Operated Calcium Entry Inhibitors Active in the Submicromolar Range” (International Journal of Molecular Sciences, 2020)
